Counter-ions that a name gives are not always drawn. Like-named read-outs stand apart in the source and are kept apart here.
What was measured:
[1] = tested on: HEK293 FOP control reporter cell line; assay: HEK293 FOP control reporter assay; type: cell-based, human; conditions: read-out: HEK FOP IC50
Method: Measurement of luciferase expression was done as described for the constitutive active Wnt assay.
(§1) In a parallel approach, HEK293 cells were cotransfected with the FOP control vector and pcDNA3. The FOP vector is identical to the TOP construct, but it contains instead of functional TCF elements a randomized, non-functional sequence. For this transfection a stable transfected cell line was generated as well, based on selection with Geneticin (1 mg/ml).

[2] = tested on: constitutive active colorectal cancer cell (CRC) Wnt pathway; assay: HCT116 TOPFlash cellular reporter assay (Super TopFlash luciferase), constitutive active Wnt pathway; type: cell-based; conditions: HCT116 TOP reporter cells, 36 hours incubation, luciferase expression
Method: In order to discover and characterize small molecules which inhibit the constitutive active colorectal cancer cell (CRC) Wnt pathway, a cellular reporter assay was employed. […] Stable transfectants were generated by cotransfection with pcDNA3 and selection of stable transfected cells with 1 mg/ml G418.

[3] = tested on: HCT116 FOP control reporter cell line; assay: HCT116 FOPFlash control reporter assay (FOP control vector, non-functional TCF elements); type: cell-based; conditions: HCT116 FOP control reporter cells, 36 hours incubation, luciferase expression
Text: as §1, with “HCT116” for “HEK293”, “well.” for “well, based on selection with Geneticin (1 mg/ml).”

## C[C@@H](C(=O)Nc1cc(C(=O)Nc2ccc(-c3ccccc3F)nc2)ccc1OC(F)(F)F)N1CCOCC1 (single isomer, unassigned) [Example 9, N-[6-(2-fluorophenyl)pyridin-3-yl]-3-{[(2S)-2-(morpholin-4-yl)propanoyl]amino}-4-(trifluoromethoxy)benzamide or N-[6-(2-fluorophenyl)pyridin-3-yl]-3-{[(2R)-2-(morpholin-4-yl)propanoyl]amino}-4-(trifluoromethoxy)benzamide]
[1]; HEK293 FOP control cells, EC50 concentration of recombinant Wnt-3a, 16 hours
  IC50: 8.2 µM

## O=C(CN1CCN(C2CC2)CC1)Nc1cc(C(=O)Nc2nnc(-c3ccccc3)s2)ccc1OC(F)F [Example 41, 3-{[(4-cyclopropylpiperazin-1-yl)acetyl]amino}-4-(difluoromethoxy)-N-(5-phenyl-1,3,4-thiadiazol-2-yl)benzamide]
[1]; Homo sapiens, HEK293, 16 h
  IC50: ≥ 50 µM

## O=C(Nc1ccc(-c2ccccc2F)nc1)c1ccc(OC(F)(F)F)c(NC(=O)C2(N3CCOCC3)CC2)c1 [Example 68, N-[6-(2-fluorophenyl)pyridin-3-yl]-3-({[1-(morpholin-4-yl)cyclopropyl]carbonyl}amino)-4-(trifluoromethoxy)benzamide]
[1]; Homo sapiens, HEK293, 16 h
  IC50: ≥ 50 µM

## O=C(Nc1ccc(-c2cc(F)cc(F)c2)nc1)c1ccc(OC(F)(F)F)c(NC(=O)C2(N3CCOCC3)CC2)c1 [Example 71, N-[6-(3,5-difluorophenyl)pyridin-3-yl]-3-({[1-(morpholin-4-yl)cyclopropyl]carbonyl}amino)-4-(trifluoromethoxy)benzamide]
[1]; Homo sapiens, HEK293, 16 h
  IC50: ≥ 50 µM

## O=C(CN1CCOCC1)Nc1cc(NC(=O)c2ccc(-c3cc(F)cc(F)c3)nc2)ccc1OC(F)(F)F [Example 27, 6-(3,5-difluorophenyl)-N-{3-[(morpholin-4-ylacetyl)amino]-4-(trifluoromethoxy)phenyl}nicotinamide]
[1]; Homo sapiens, HEK293, 16 h
  IC50: ≥ 50 µM

## O=C(CN1CCN(C2CC2)CC1)Nc1cc(C(=O)Nc2nnc(-c3ccccc3)s2)ccc1OC(F)(F)F [Example 53, 3-{[(4-cyclopropylpiperazin-1-yl)acetyl]amino}-N-(5-phenyl-1,3,4-thiadiazol-2-yl)-4-(trifluoromethoxy)benzamide]
[1]; Homo sapiens, HEK293, 16 h
  IC50: ≥ 50 µM

## O=C(Nc1nnc(-c2ccccc2)s1)c1ccc(OC(F)F)c(NC(=O)C2(N3CCN(C4CC4)CC3)CC2)c1 [Example 38, 3-({[1-(4-cyclopropylpiperazin-1-yl)cyclopropyl]carbonyl}amino)-4-(difluoromethoxy)-N-(5-phenyl-1,3,4-thiadiazol-2-yl)benzamide]
[1]; Homo sapiens, HEK293, 16 h
  IC50: ≥ 50 µM

## CN1CCN(CC(=O)Nc2cc(C(=O)Nc3nnc(-c4cccc(Cl)c4)s3)ccc2OC(F)(F)F)CC1 [Example 151, N-[5-(3-chlorophenyl)-1,3,4-thiadiazol-2-yl]-3-{[(4-methylpiperazin-1-yl)acetyl]amino}-4-(trifluoromethoxy)benzamide]
[1]; Homo sapiens, HEK293, 16 h
  IC50: ≥ 50 µM

## O=C(Nc1ccc(-c2ccccc2F)nc1)c1ccc(OC(F)(F)F)c(NC(=O)C2(N3CCN(C4CC4)CC3)CC2)c1 [Example 67, 3-({[1-(4-cyclopropylpiperazin-1-yl)cyclopropyl]carbonyl}amino)-N-[6-(2-fluorophenyl)pyridin-3-yl]-4-(trifluoromethoxy)benzamide]
[1]; Homo sapiens, HEK293, 16 h
  IC50: ≥ 50 µM

## O=C(Nc1nnc(-c2ccccc2)s1)c1ccc(OC(F)(F)F)c(NC(=O)C2(N3CCN(C4CC4)CC3)CC2)c1 [Example 51, 3-({[1-(4-cyclopropylpiperazin-1-yl)cyclopropyl]carbonyl}amino)-N-(5-phenyl-1,3,4-thiadiazol-2-yl)-4-(trifluoromethoxy)benzamide]
[1]; Homo sapiens, HEK293, 16 h
  IC50: ≥ 50 µM

## O=C(Nc1nnc(-c2ccccc2)s1)c1ccc(OC(F)F)c(NC(=O)C2(N3CCOCC3)CC2)c1 [Example 37, 4-(difluoromethoxy)-3-({[1-(morpholin-4-yl)cyclopropyl]carbonyl}amino)-N-(5-phenyl-1,3,4-thiadiazol-2-yl)benzamide]
[1]; Homo sapiens, HEK293, 16 h
  IC50: ≥ 50 µM

## CC(C(=O)Nc1cc(C(=O)Nc2nnc(-c3ccccc3)s2)ccc1OC(F)(F)F)N1CCN(C)CC1 (centres unmarked) [Example 58, 3-{[2-(4-methylpiperazin-1-yl)propanoyl]amino}-N-(5-phenyl-1,3,4-thiadiazol-2-yl)-4-(trifluoromethoxy)benzamide]
[1]; Homo sapiens, HEK293, 16 h
  IC50: ≥ 50 µM

## COc1ccc(-c2ccc(C(=O)Nc3ccc(OC)c(NC(=O)CN4CCOCC4)c3)s2)cc1 [Example 35, N-{4-methoxy-3-[(morpholin-4-ylacetyl)amino]phenyl}-5-(4-methoxyphenyl)thiophene-2-carboxamide]
[1]; Homo sapiens, HEK293, 16 h
  IC50: ≥ 50 µM

## CC(C(=O)Nc1cc(C(=O)Nc2ccc(-c3ccccc3F)nc2)ccc1OC(F)(F)F)N1CCN(C2CC2)CC1 (centres unmarked) [Example 196, 3-{[2-(4-cyclopropylpiperazin-1-yl)propanoyl]amino}-N-[6-(2-fluorophenyl)pyridin-3-yl]-4-(trifluoromethoxy)benzamide]
[2]; Homo sapiens, HCT-116, 36 h
  IC50: 0.143 µM
[3]; Homo sapiens, HCT-116, 36 h
  IC50: ≥ 50 µM

## CC(C(=O)Nc1cc(C(=O)Nc2ccc(-c3cc(F)cc(F)c3)nc2)ccc1OC(F)(F)F)N1CC2CCC(C1)O2 (centres unmarked) [Example 194, N-[6-(3,5-difluorophenyl)pyridin-3-yl]-3-{[2-(8-oxa-3-azabicyclo[3.2.1]oct-3-yl)propanoyl]amino}-4-(trifluoromethoxy)benzamide]
[2]
  IC50: 0.0399 µM
[3]
  IC50: 35 µM

## O=C(CN1CCOCC1)Nc1cc(C(=O)Nc2nnc(-c3ccccc3)o2)ccc1OC(F)(F)F [Example 191, 3-[(morpholin-4-ylacetyl)amino]-N-(5-phenyl-1,3,4-oxadiazol-2-yl)-4-(trifluoromethoxy)benzamide]
[2]; Homo sapiens, HCT-116, 36 h
  IC50: 4.1 µM
[3]; Homo sapiens, HCT-116, 36 h
  IC50: ≥ 50 µM

## CC(C(=O)Nc1cc(NC(=O)c2ccc(-c3cccc(F)c3)nc2)ccc1OC(F)(F)F)N1CCOCC1 (centres unmarked) [Example 201, 6-(3-fluorophenyl)-N-[3-{[2-(morpholin-4-yl)propanoyl]amino}-4-(trifluoromethoxy)phenyl] nicotinamide]
[2]
  IC50: 0.106 µM
[3]
  IC50: 28.6 µM

## COCc1ccc(C(=O)Nc2nnc(-c3ccccc3C)s2)cc1NC(=O)CN1CCN(C)CC1 [Example 177, 4-(methoxymethyl)-N-[5-(2-methylphenyl)-1,3,4-thiadiazol-2-yl]-3-{[(4-methylpiperazin-1-yl)acetyl]amino}benzamide hydrochloride (1:1)]
[2]; Homo sapiens, HCT-116, 36 h
  IC50: 0.46 µM
[3]; Homo sapiens, HCT-116, 36 h
  IC50: 35 µM

## O=C(CN1CCOCC1)Nc1cc(NC(=O)c2ccc(-c3c(F)cccc3F)nc2)ccc1OC(F)(F)F [Example 29, 6-(2,6-difluorophenyl)-N-{3-[(morpholin-4-ylacetyl)amino]-4-(trifluoromethoxy)phenyl}nicotinamide]
[2]; Homo sapiens, HCT-116, 36 h
  IC50: 0.156 µM
[3]; Homo sapiens, HCT-116, 36 h
  IC50: ≥ 50 µM

## O=C(Nc1nnc(-c2ccccc2F)s1)c1ccc(OC(F)(F)F)c(NC(=O)C2(N3CCOCC3)CC2)c1 [Example 89, N-[5-(2-fluorophenyl)-1,3,4-thiadiazol-2-yl]-3-({[1-(morpholin-4-yl)cyclopropyl]carbonyl}amino)-4-(trifluoromethoxy)benzamide]
[2]; Homo sapiens, HCT-116, 36 h
  IC50: 0.216 µM
[3]; Homo sapiens, HCT-116, 36 h
  IC50: 44 µM

## O=C(CN1CCOCC1)Nc1cc(C(=O)Nc2ccc(-c3ccccc3F)nc2)ccc1OC(F)(F)F [Example 5, N-[6-(2-fluorophenyl)pyridin-3-yl]-3-[(morpholin-4-ylacetyl)amino]-4-(trifluoromethoxy)benzamide]
[2]; Homo sapiens, HCT-116, 36 h
  IC50: 0.0403 µM
[3]; Homo sapiens, HCT-116, 36 h
  IC50: ≥ 50 µM

## Cc1ccccc1-c1nnc(NC(=O)c2ccc(OC(F)(F)F)c(NC(=O)CN3CCN(C)CC3)c2)s1 [Example 144, N-[5-(2-methylphenyl)-1,3,4-thiadiazol-2-yl]-3-{[(4-methylpiperazin-1-yl)acetyl]amino}-4-(trifluoromethoxy)benzamide]
[2]; Homo sapiens, HCT-116, 36 h
  IC50: 0.195 µM
[3]; Homo sapiens, HCT-116, 36 h
  IC50: ≥ 50 µM

## CC(C(=O)Nc1cc(C(=O)Nc2ccc(-c3cccc(F)c3)nc2)ccc1OC(F)(F)F)N1C[C@@H]2C[C@H]1CO2 (relative stereo) [Example 243, N-[6-(3-fluorophenyl)pyridin-3-yl]-3-({(2R*)-2-[(1S,4S)-2-oxa-5-azabicyclo[2.2.1]hept-5-yl]propanoyl}amino)-4-(trifluoromethoxy)benzamide]
[2]
  IC50: 0.028 µM
[3]
  IC50: 7.7 µM

## COc1ccc(C(=O)Nc2ccc(-c3ccccc3)nc2)cc1NC(=O)CN1CCOCC1 [Example 4, 4-methoxy-3-[(morpholin-4-ylacetyl)amino]-N-(6-phenylpyridin-3-yl)benzamide]
[2]; Homo sapiens, HCT-116, 36 h
  IC50: 0.3 µM
[3]; Homo sapiens, HCT-116, 36 h
  IC50: ≥ 50 µM

## CN1CCN(CC(=O)Nc2cc(C(=O)Nc3ccc(-c4ccccc4)cn3)ccc2OC(F)(F)F)CC1 [Example 158, 3-{[(4-methylpiperazin-1-yl)acetyl]amino}-N-(5-phenylpyridin-2-yl)-4-(trifluoromethoxy)benzamide]
[2]; Homo sapiens, HCT-116, 36 h
  IC50: 0.0736 µM
[3]; Homo sapiens, HCT-116, 36 h
  IC50: 21.8 µM

## CN1CCN(CC(=O)Nc2cc(C(=O)Nc3nnc(-c4ccccc4)s3)ccc2C#N)CC1 [Example 174, 4-cyano-3-{[(4-methylpiperazin-1-yl)acetyl]amino}-N-(5-phenyl-1,3,4-thiadiazol-2-yl)benzamide]
[2]; Homo sapiens, HCT-116, 36 h
  IC50: 3.8 µM
[3]; Homo sapiens, HCT-116, 36 h
  IC50: ≥ 50 µM

## COc1ccc(NC(=O)c2cnc(-c3ccccc3)s2)cc1NC(=O)C(C)N1CCOCC1 (centres unmarked) [Example 107, N-(4-methoxy-3-{[2-(morpholin-4-yl)propanoyl]amino}phenyl)-2-phenyl-1,3-thiazole-5-carboxamide]
[2]; Homo sapiens, HCT-116, 36 h
  IC50: 0.209 µM
[3]; Homo sapiens, HCT-116, 36 h
  IC50: ≥ 50 µM
